Data from patent US20210300940A1 (Merck Patent GmbH, priority 2018, published 2021).
Structures can show the parent of a compound that is named as a salt.

Columns and labels:
TLR7 = target: T1, TLR7 (Homo sapiens, UniProt Q9NYK1); assay: HEK/293 TLR7 Cell Assay; type: cell-based; conditions: TLR7/NFKb HEK cells, R848 agonist 10 uM final concentration, Steady-Glo readout; read-out: TLR7 potency
T1 construct: expressed in transfected cells; host or cells: HEK/293 cells carrying TLR7 and an NF-kB luciferase reporter
T1 sequence (Q9NYK1 27-1049): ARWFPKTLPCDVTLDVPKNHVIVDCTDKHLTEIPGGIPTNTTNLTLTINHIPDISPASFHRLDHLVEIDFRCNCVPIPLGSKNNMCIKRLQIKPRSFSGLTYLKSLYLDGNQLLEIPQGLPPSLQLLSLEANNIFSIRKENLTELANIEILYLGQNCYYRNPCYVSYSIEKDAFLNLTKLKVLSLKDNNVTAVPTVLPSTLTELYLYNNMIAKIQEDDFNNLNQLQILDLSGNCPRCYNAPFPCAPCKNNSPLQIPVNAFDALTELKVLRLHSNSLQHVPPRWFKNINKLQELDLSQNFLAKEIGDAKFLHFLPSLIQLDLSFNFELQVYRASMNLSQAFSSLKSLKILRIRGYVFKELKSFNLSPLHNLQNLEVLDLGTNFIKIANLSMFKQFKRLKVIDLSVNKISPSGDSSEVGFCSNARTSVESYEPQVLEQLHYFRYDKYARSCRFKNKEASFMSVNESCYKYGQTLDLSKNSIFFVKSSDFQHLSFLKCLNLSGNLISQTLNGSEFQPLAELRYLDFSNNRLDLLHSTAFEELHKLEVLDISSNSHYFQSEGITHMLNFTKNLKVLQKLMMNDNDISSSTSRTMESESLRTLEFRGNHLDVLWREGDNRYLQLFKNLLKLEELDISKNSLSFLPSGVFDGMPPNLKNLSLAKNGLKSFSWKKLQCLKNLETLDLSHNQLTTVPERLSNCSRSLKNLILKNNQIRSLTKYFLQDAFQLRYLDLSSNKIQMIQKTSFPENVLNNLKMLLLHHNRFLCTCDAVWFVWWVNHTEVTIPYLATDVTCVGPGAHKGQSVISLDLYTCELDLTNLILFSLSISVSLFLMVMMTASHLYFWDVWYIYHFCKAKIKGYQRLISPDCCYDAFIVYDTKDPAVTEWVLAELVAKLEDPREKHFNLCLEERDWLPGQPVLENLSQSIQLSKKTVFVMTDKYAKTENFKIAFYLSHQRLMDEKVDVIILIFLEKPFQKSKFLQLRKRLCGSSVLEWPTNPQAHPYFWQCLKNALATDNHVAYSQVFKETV
Method: (§1) Example 389: HEK/293 TLR7 Cell Assay Into 384 CulturePlates (Corning 3765) was placed 5000 c/w of TLR7/NFKb HEK cells in 30 uL DMEM without Phenol red (gibco #31053-028) and 10% heat inactivated fetal bovine serum, 10% penicillin-streptomycin, and 2 mM L-Glutamine. The cells were incubated for 24 h at 37° C., 10% carbon dioxide and 90% relative humidity. 3 uL of controls, standards, and compounds were dispensed into wells, incubated for 30 min then 3 uL of R848 agonist (10 uM final concentration) was added in 20 mM Hepes. After incubation for 5 hours, they were allowed to stand at room temperature for 15 min. To this was added 10 uL of Steady-Glo substrate reagent and shake assay plate for 5 min at 1500 rpm. The assay plate was allowed to sit for 30 min at room temperature and then the plate was read on EnVision.

TLR8 = target: T2, TLR8 (Homo sapiens, UniProt Q9NR97); assay: HEK/293 TLR8 Cell Assay; type: cell-based; conditions: HEK cells, R848 agonist 30 uM final concentration, Steady-Glo readout; read-out: TLR8 potency
T2 construct: expressed in transfected cells; host or cells: HEK/293 reporter cells (NF-kB luciferase)
T2 sequence (Q9NR97 27-1041): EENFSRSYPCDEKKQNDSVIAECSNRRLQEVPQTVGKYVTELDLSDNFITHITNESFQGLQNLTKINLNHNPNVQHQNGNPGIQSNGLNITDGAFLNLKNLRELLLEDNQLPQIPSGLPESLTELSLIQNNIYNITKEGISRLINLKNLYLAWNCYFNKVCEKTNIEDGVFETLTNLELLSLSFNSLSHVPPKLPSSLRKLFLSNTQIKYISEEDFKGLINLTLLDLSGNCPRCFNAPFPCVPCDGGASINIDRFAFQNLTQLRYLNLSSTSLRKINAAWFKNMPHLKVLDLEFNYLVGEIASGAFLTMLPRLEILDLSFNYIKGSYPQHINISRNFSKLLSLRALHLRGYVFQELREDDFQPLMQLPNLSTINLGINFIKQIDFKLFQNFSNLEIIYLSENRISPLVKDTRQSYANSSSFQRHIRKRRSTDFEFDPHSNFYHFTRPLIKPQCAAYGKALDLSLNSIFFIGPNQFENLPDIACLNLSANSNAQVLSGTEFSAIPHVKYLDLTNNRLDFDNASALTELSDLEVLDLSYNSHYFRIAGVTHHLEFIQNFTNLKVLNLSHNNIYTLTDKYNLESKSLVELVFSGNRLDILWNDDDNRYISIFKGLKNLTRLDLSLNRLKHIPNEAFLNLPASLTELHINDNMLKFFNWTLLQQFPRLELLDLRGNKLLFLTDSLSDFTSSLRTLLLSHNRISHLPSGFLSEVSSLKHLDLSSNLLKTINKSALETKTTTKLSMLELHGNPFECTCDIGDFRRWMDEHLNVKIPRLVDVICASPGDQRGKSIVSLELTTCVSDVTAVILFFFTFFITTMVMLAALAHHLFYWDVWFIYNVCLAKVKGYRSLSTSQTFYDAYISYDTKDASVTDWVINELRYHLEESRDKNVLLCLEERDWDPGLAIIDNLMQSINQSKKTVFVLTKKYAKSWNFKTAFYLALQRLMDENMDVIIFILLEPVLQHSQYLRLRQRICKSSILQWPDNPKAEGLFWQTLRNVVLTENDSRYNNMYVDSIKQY
Method: as §1, with “Example 390:” for “Example 389:”, “HEK/293 TLR8” for “HEK/293 TLR7”, “serum, 1%” for “serum, 10%”, “agonist (30” for “agonist (10”

Molecule | IC50 (TLR7) [nM] | IC50 (TLR8) [nM]
C[C@@H]1CN(c2ccc(C#N)c3nccnc23)C[C@H](C(=O)NC2CN(CC(F)(F)F)C2)O1 [Example 254, (2R,6R)-4-(8-Cyano-quinoxalin-5-yl)-6-methyl-morpholine-2-carboxylic acid [1-(2,2,2-trifluoro-ethyl)-azetidin-3-yl]-amide] | < 75 | > 150
C[C@@H]1CN(c2ccc(C#N)c3nccnc23)C[C@H](C(=O)N[C@H]2CNC[C@H]2F)O1 [Example 294, (2R,6R)-4-(8-Cyano-quinoxalin-5-yl)-6-methyl-morpholine-2-carboxylic acid ((3S,4R)-4-fluoro-pyrrolidin-3-yl)-amide hydrochloride (2)] | < 75 | < 75
Cc1c(F)cc(N2C[C@@H](C)C[C@@H](NC(=O)[C@H](N)CO)C2)c2cccnc12 [Example 135, (R)-2-Amino-N-[(3R,5S)-1-(7-fluoro-8-methyl-quinolin-5-yl)-5-methyl-piperidin-3-yl]-3-hydroxy-propionamide] | < 75 | < 75
N#Cc1ccc(N2C[C@H](NC(=O)[C@@H]3CCCN3)C[C@H](C(F)(F)F)C2)c2cccnc12 [Example 125, (2S)—N-[(3R,5S)-1-(8-cyanoquinolin-5-yl)-5-(trifluoromethyl)piperidin-3-yl]pyrrolidine-2-carboxamide] | < 75 | < 75
CC(C(=O)N[C@@H]1C[C@H](C(F)(F)F)CN(c2ccc(C#N)c3ncccc23)C1)N1CCN(C)CC1 (single isomer, unassigned) [Example 100] | 75 to 150 | < 75
C[C@H]1C[C@@H](NC(=O)CCn2ccnc2)CN(c2ccc(C#N)c3nccnc23)C1 [Example 193, N-[(3R,5S)-1-(8-Cyano-quinoxalin-5-yl)-5-methyl-piperidin-3-yl]-3-imidazol-1-yl-propionamide] | < 75 | < 75
C[C@H]1C[C@@H](NC(=O)[C@H](O)CO)CN(c2ccc(C#N)c3nccnc23)C1 [Example 160, (R)—N-[(3R,5S)-1-(8-Cyano-quinoxalin-5-yl)-5-methyl-piperidin-3-yl]-2,3-dihydroxy-propionamide] | < 75 | < 75
C[C@H]1C[C@@H](n2ccnc2)CN(c2ccc(C#N)c3ncccc23)C1 [Example 158, 5-[(3R,5S)-3-(1H-imidazol-1-yl)-5-methylpiperidin-1-yl]quinoline-8-carbonitrile] | > 150 | < 75
C[C@@H]1CN(c2ccc(C#N)c3nccnc23)C[C@H](CSC2CN(CC(C)(C)O)C2)O1 [Example 226, 8-{(2R,6R)-2-[1-(2-Hydroxy-2-methyl-propyl)-azetidin-3-ylsulfanylmethyl]-6-methyl-morpholin-4-yl}-quinoxaline-5-carbonitrile] | < 75 | < 75
C[C@H]1C[C@@H](NCCCS(C)(=O)=O)CN(c2ccc(C#N)c3nccnc23)C1 [Example 21, 8-[(3R,5S)-3-[(3-methanesulfonylpropyl)amino]-5-methylpiperidin-1-yl]quinoxaline-5-carbonitrile methanesulfonamide] | < 75 | < 75
C[C@H]1C[C@@H](NCCC2CCNC2=O)CN(c2ccc(C(F)(F)F)c3ncccc23)C1 (stereo partly drawn) [Example 30, 3-{2-[(3R,5S)-5-Methyl-1-(8-trifluoromethyl-quinolin-5-yl)-piperidin-3-ylamino]-ethyl}-pyrrolidin-2-one] | < 75 | < 75
C[C@H]1C[C@@H](NC(=O)CC2(F)CCN(C)CC2)CN(c2ccc(C#N)c3nccnc23)C1 [Example 192, N-[(3R,5S)-1-(8-Cyano-quinoxalin-5-yl)-5-methyl-piperidin-3-yl]-2-(4-fluoro-1-methyl-piperidin-4-yl)-acetamide] | < 75 | < 75
C[C@H]1C[C@@H](NC(=O)C[C@H]2[C@@H]3C[C@H]2CN(C)C3)CN(c2ccc(C(F)(F)F)c3ncccc23)C1 [Example 106, N-[(3R,5S)-5-methyl-1-[8-(trifluoromethyl)quinolin-5-yl]piperidin-3-yl]-2-[(1R,5S,6s)-3-methyl-3-azabicyclo[3.1.1]heptan-6-yl]acetamide] | < 75 | < 75
C[C@H]1C[C@@H](NS(=O)(=O)NCCC2CCN(C)CC2)CN(c2ccc(C(F)(F)F)c3ncccc23)C1 [Example 201, N-[2-(1-methylpiperidin-4-yl)ethyl]{[(3R,5S)-5-methyl-1-[8-(trifluoromethyl)quinolin-5-yl]piperidin-3-yl]amino}sulfonamide] | < 75 | < 75
CN1CCC(F)(CC(=O)N[C@@H]2C[C@H](C(F)(F)F)CN(c3ccc(C#N)c4nccnc34)C2)CC1 [Example 77] | < 75 | < 75
C[C@@H]1CN(c2ccc(C#N)c3nccnc23)C[C@H](C(=O)NC[C@H](O)CN(C)C)O1 (single isomer, unassigned) [Example 261] | < 75 | < 75
(2S)—N-[(3R,5S)-5-amino-1-(8-cyanoquinazolin-5-yl)piperidin-3-yl]-2-(4-methylpiperazin-1-yl)propanamide [Example 97] | < 75 | > 150
N#Cc1ccc(N2C[C@H](NC(=O)C(O)CO)C[C@H](C(F)(F)F)C2)c2cccnc12 (stereo partly drawn) [Example 60, N-[(3R,5S)-1-(8-Cyano-quinolin-5-yl)-5-trifluoromethyl-piperidin-3-yl]-2,3-dihydroxy-propionamide] | < 75 | < 75
